Article PMC12693327, “SERAAK2 as a Serotonin Receptor Ligand: Structural and Pharmacological In Vitro and In Vivo Evaluation” (Molecules, 2025)
Entries after “also recorded” stand apart in the source; their conditions may differ.

Experiments:
[1] = target: T1, CYP3A4 (Homo sapiens, UniProt P08684); experiment: CYP3A4 luminescent luciferase-based assay (Glo kit); type: in vitro ADME; conditions: mean ± SEM, two experiments, n = 3 each, read-out: CYP3A4 Activity Inhibition, Evaluated at the Concentration of 10 µM [% of Inhibition ± SEM]
T1 construct: purchased Promega
Description: The effect of SERAAK2 on the activity of the cytochrome P450 isoforms CYP3A4 and CYP2D6 was tested using commercial luminescence assays (Glo kits bought from Promega, Medison, WI, USA). The experiment was performed twice with triplicate samples, following the manufacturer’s guidelines and established procedures.

[2] = test system: mice; experiment: Spontaneous locomotor activity; type: in vivo; conditions: 60 min before test
Description: (§1) The investigated compound (SER2AAK2) was bought from Enamine (purity over 95%) and in all tests was administered intraperitoneally (i.p.), spread in a drop of Tween 80, and diluted with an aqueous solution of 0.5% methylcellulose (tylose) and injected 60 min before the tests in a volume of 10 mL/kg. Control groups received tylose injections of the same volume and via the same route of administration.
Locomotor activity of the mice was assessed using the Opto-Varimex-4 Auto-Track system (Columbus Instruments, OH, USA). Each mouse was placed individually in a testing cage for 25 min—5 min for acclimatization, followed by 20 min of activity recording. (6a) The total distance traveled (in centimeters) was measured. Cages were cleaned with 10% ethanol between sessions.

[3] = test system: mice; experiment: Motor coordination, rotarod test; type: in vivo; conditions: for Motor coordination (rotarod, chimney): rotarod and chimney
Description: as §1
The effects of the SER2AAK2 compound were also measured in the rotarod and chimney tests. In the rotarod test, mice were evaluated for their ability to maintain balance on a constantly rotating rod (18 rpm) for 1 min. The chimney test involved placing a mouse in a horizontal polymer tube (3 cm diameter, 25 cm length). Once the mouse reached the far end, the tube was positioned vertically, requiring the animal to climb backwards to exit. Right motor coordination was defined as exiting the chimney within 60 s. Prior to testing, mice underwent a 3-day training. Only those animals that were able to stay on the rotating rod or leave the chimney within the required time were included in the study.

[4] = test system: mice; experiment: Elevated plus maze (EPM) test; type: in vivo
Description: as §1
Anxiety behaviors were measured using the EPM test according to the Lister method. The apparatus consisted of four black-painted arms arranged in a plus-shaped configuration with a central platform (5 × 5 cm). Two opposing arms were open (30 × 5 cm), while the other two were enclosed (30 × 5 × 15 cm). The maze was elevated 38.5 cm above the floor and illuminated with dim, diffuse red light. Experiments were conducted in a quiet, dark room. […] The following parameters were recorded: time spent in the open arms, number of entries into the open arms, and total number of entries into both types of arms.

[5] = test system: mice; experiment: Passive avoidance (PA) task, memory consolidation; type: in vivo; conditions: 7.5 mg/kg, retention phase, vs vehicle control
Description: as §1
The passive avoidance (PA) task measures a long-term memory, as it was reported by Venault et al.. The PA apparatus consists of a two-compartment acrylic box, one illuminated with fluorescent light (8 W) (10 cm × 13 cm × 15 cm) and another darkened (25 cm × 20 cm × 15 cm), connected by a guillotine door. Entrance of the animal to the darkened box was punished by an electric foot shock (0.15 mA for 2 s). The PA procedure was previously described. In particular, on the first day of the experiment [i.e., training (pre-test)], mice were placed individually into the illuminated compartment and allowed to explore this box. […] The latency time for entering the darkened compartment was recorded (TL1). […] The results were expressed as the latency index (LI), calculated by the following formula: TL1−TL2/TL1 where TL1 is the time needed to move to the dark compartment during a training session and TL2 is the time needed to re-enter the dark compartment, measured 24 h after TL1 (retention).

[6] = target: 5-HT1A receptor; set-up: method as in PMID 38619283; conditions: cited from earlier work

T1 sequence (P08684 whole entry): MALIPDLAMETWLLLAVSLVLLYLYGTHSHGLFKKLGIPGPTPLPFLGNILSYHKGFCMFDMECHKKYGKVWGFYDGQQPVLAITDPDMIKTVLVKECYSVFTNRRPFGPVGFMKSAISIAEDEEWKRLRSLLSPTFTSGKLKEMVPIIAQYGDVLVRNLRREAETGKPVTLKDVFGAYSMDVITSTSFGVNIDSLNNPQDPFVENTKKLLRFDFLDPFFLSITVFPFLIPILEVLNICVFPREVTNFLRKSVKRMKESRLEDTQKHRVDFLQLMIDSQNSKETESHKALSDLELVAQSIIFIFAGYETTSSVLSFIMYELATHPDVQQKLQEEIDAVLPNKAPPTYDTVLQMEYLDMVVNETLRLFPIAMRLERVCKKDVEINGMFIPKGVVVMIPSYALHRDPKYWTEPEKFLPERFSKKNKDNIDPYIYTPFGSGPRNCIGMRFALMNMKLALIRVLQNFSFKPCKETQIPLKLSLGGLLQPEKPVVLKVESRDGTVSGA

inhibition at 10 µM [1]: 0%
SMILES: OC(CNCCc1c[nH]c2ccccc12)COc1ccc(Oc2ccccc2)cc1 (stereo not shown) [SERAAK2]
Spontaneous locomotor activity ([2]; mice, 7.5 mg/kg i.p., 7.5 mg/kg): inactive; also recorded: no effect
Spontaneous locomotor activity ([2]; mice, 60, 30 and 15 mg/kg i.p., 20 min recording): statistically significant reduction in locomotor activity; also recorded: reduced activity
time held on rotating rod ([3]; mice, 7.5 mg/kg i.p., 60 min before test, test length 1 min): about 60 s
Motor coordination (rotarod, chimney) ([3]; mice, 7.5 mg/kg): inactive; also recorded: no effect
Motor coordination (rotarod, chimney) ([3]; mice, 15–60 mg/kg): impairment
motor coordination in the rotarod test ([3]; mice, 60, 30 and 15 mg/kg i.p., 60 min before test): significant disturbances in motor coordination
Elevated plus maze (EPM), open arm time and entries ([4]; 7.5 mg/kg): ↑ open arm time and entries (7.5 mg/kg)—anxiolytic effect
EPM total number of entries into both open and closed arms ([4]; 7.5 mg/kg i.p.): remained unchanged
EPM percentage of open arm entries ([4]; 7.5 mg/kg i.p., p < 0.01 vs control): significant increase
EPM percentage of time spent in the open arms ([4]; 7.5 mg/kg i.p., p < 0.05 vs control): significant increase
PA memory consolidation, latency index [5]: did not significantly change the latency index; also recorded: no effect on memory consolidation
Ki [6]: 153 ± 0.4 nM
